This is an account of results in US20180185448A1, “COMPOSITION AND METHOD FOR INDUCING ANTI-INFLAMMATORY RESPONSE” (Vital Therapies, Inc., priority 2015, published 2018).

The test system of assay [1] is monolayer C3A cells. Nature of the assay: Monolayer C3A cells incubated with inflammatory cytokines (IL-6, IL-1β, TNF-α); secreted factors assayed in conditioned media by ELISA/multiplex. The note with it: for AAT secretion at 54 h: 54 h compared with 24 h; for TNF-α secretion: 24 and 48 h; for IL-10 secretion / IL-10 secretion at 48 hr: 10 ng/mL; for IL-10 secretion: 24 h vs controls; for IL-10 secretion at 48 hr: 48 hr compared with 24 h. Format: cell-based, human. The procedure:
(§1) Conditioned media from C3A cells of an active cartridge of a treatment system of the disclosure were assayed for APP, cytokines, and other mediators that affect inflammation using singleplex ELISA kits (R&D Systems, abcam), chemiluminescent multiplex array kits (Aushon) and/or contracted services (Myriad Rules Based Medicine). Inflammatory cytokines reported to be present in hepatitis patient serum (IL-6 [0, 1, 10, 100 ng/mL]±IL-1β [0, 1, 10, 100 ng/mL]) were incubated with monolayer, or C3A cells recovered from the treatment system, for 24 or 54 h, and conditioned media were assayed for the APP IL-1 receptor antagonist (IL-1Ra), alpha-1-antitrypsin (AAT), and albumin. Lipopolysaccharide (LPS) (0, 0.01, 0.1, 1, 10 EU/mL) was incubated with monolayer C3A cells for 24 h and assayed for APP.
Conditioned media from active cartridges including qualified C3A cells were assayed for APP, cytokines, and other mediators that affect inflammation. Inflammatory cytokines present in patient serum (IL-6±IL-1β) were incubated with monolayer, or C3A cells recovered from the system, for 24 or 54 h and media assayed for IL-1 receptor antagonist (IL-1Ra) and alpha-1-antitrypsin (AAT).
(§2) C3A cells of the invention were plated in monolayer and incubated with LPS or with inflammatory cytokines (IL-6, IL-1β, and/or TNF-α) for 24, 48, or 54 h. Cytokines were dosed individually or in combination at 0, 1, 10, or 100 ng/mL as indicated in each figure. Separate C3A cells were incubated with LPS at 0, 0.01, 0.1, 1, or 10 EU/mL for 24 h.
(§3) Additionally, intact C3A tissue (C3A cells cultured three-dimensionally between polysulfone hollow fibers) was excised from C3A cell cartridges and dosed in conjunction with 10 ng/mL IL-1β and 10 ng/mL IL-6 for 24 h. The supernatants from these monolayer C3A cell and ELAD C3A tissue experiments were assayed for IL-1Ra, AAT, IL-10, or albumin via in-house and commercial ELISA kits (R&D Systems, abcam), contracted services for multiplex ELISAs (Myriad), or chemiluminescent multiplex assay kits (Aushon).

The subject of assay [2] is monolayer C3A cells. Nature of the assay: Monolayer C3A cells incubated with LPS for 24 h; IL-1Ra and AAT assayed in media. The assay is classed as cell-based, human. The procedure: as §1, §2, §3
Where [3] appears, read: Example 1, monolayer C3A cultures.
Setting [4] is: Example 3, monolayer C3A cells 1.3×10^5 cells/cm, 24 and 54 h, n=3.
[5] abbreviates: Examples 1-2, monolayer C3A cells, 24 h, single replicates of pooled triplicate wells.
The mark [6] stands for this setting: Examples 1-2, monolayer C3A cells.
Where [7] appears, read: FIG. 18 experiment, monolayer C3A cells 2.6×10^5 cells/cm^2, TNF-α 1, 10 or 100 ng/mL, IL-1β 10 ng/mL.
Where [8] appears, read: monolayer C3A cells 2.6×10^5 cells/cm^2.
Setting [9] is: monolayer C3A cells, IL-6 ± IL-1β 1-100 ng/mL, 24 h (or time not stated).
The mark [10] stands for this setting: Example 3, monolayer C3A cells 1.3×10^5 cells/cm^2.
Where [11] appears, read: Example 3, monolayer, 24, 48 hr.
Setting [12] is: Example 3, monolayer, 24 hr, 48 hr.

“Also recorded” adds a separate entry of the source.

As to Interleukin-1 beta [IL-1β], in the assay on monolayer C3A cells [1] (setting [3]), the G-CSF increase was determined as 50 fold, the IL-8 increase is 2,000 fold, the SCF increase is recorded as 100 fold and the TNFα increase is listed as 25 fold. Also, the AAT secretion entry in the assay with monolayer C3A cells [1] (setting [4]) is given as “no apparent effect; also recorded: not affected”. In addition, the “IL-6-induced fibrinogen expression on addition of IL-1β” value in the assay on monolayer C3A cells [1] (Example 3, monolayer C3A cells, IL-1β added to IL-6) is given as “abrogated”. In addition, in the assay with monolayer C3A cells [1] (setting [5]), the AAT secretion entry is on record as “dose-dependent upregulation; also recorded: upregulated”. Further, the AAT secretion result with monolayer C3A cells [1] (Examples 1-2, monolayer C3A cells, 24 h, single replicates of pooled triplicate wells, listed as IL-1 β) is listed as “dose-dependent up-regulation”. In addition, in the assay with monolayer C3A cells [1] (setting [6]), the “AAT secretion at 54 h” value is “further increased; also recorded: increases with exposure time”. The “AAT secretion at 54 h” value in the assay with monolayer C3A cells [1] (Examples 1-2, monolayer C3A cells, listed as IL-1 β) is “further increased”. In addition, in the assay with monolayer C3A cells [1] (setting [7]), the IL-1Ra secretion entry is recorded as “increased; also recorded: upregulated”. The TNF-α secretion result in the assay on monolayer C3A cells [1] (setting [8]) is “upregulated; also recorded: low, yet elevated”. In the assay with monolayer C3A cells [1] (monolayer C3A cells), the IL-10 secretion entry is given as “increased above the controls; also recorded: upregulated” and the “IL-10 secretion at 48 hr” value is on record as “further increased”. The IL-1Ra secretion entry in the assay with monolayer C3A cells [1] (setting [9]) is “did not increase”.
For Interleukin-6 [IL-6], in the assay on monolayer C3A cells [1] (setting [3]), the IL-10 increase was 10 fold, the IL-18 increase is 9 fold, the MCP-1 increase turned out to be 15 fold and the TNF-β increase is on record as 12 fold. Also, in the assay with monolayer C3A cells [1] (setting [3]), the fibrinogen increase came to 6 fold. Further, the AAT secretion result in the assay on monolayer C3A cells [1] (setting [4]) is recorded as “no apparent effect; also recorded: not affected”. Besides, in the assay with monolayer C3A cells [1] (setting [10]), the fibrinogen secretion result is “increased” and the α-2 macroglobulin secretion entry was “increased; also recorded: modestly upreguated”. Also, in the assay with monolayer C3A cells [1] (setting [11]), the “Fibrinogen increase vs. control” value is reported as ~6 fold, the “IL-18 increase vs. control” value is reported as ~9 fold, the “Monocyte chemotactic protein 1 (MCP-1) increase vs. control” value is recorded as ~15 fold and the “TNF-β increase vs. control” value is recorded as ~12 fold. Moreover, in the assay on monolayer C3A cells [1] (Example 3, monolayer, 24 hr), the “Granulocyte-colony stimulating factor (G-CSF) increase vs. control” value is on record as ~50 fold, the “IL-7 increase vs. control” value is listed as ~10 fold, the “IL-10 increase vs. control” value is listed as ~10 fold and the “Granulocyte-colony stimulating factor (G-CSF) increase with IL-6 vs. control” value is ~300 fold. In the assay with monolayer C3A cells [1] (setting [12]), the “IL-8 increase vs. control” value is listed as ~2,000 fold, the “Stem cell factor (SCF) increase vs. control” value is reported as ~100 fold and the “TNFα increase vs. control” value was ~25 fold. Moreover, in the assay on monolayer C3A cells [1] (Example 3, monolayer, 48 hr), the “Granulocyte-colony stimulating factor (G-CSF) increase vs. control” value is reported as ~75 fold, the “IL-7 increase vs. control” value was ~14 fold and the “Granulocyte-colony stimulating factor (G-CSF) increase with IL-6 vs. control” value was ~500 fold. Moreover, the AAT secretion entry with monolayer C3A cells [1] (setting [5]) is reported as “dose-dependent upregulation; also recorded: upregulated; also recorded: dose-dependent up-regulation”. Besides, the “AAT secretion at 54 h” value in the assay with monolayer C3A cells [1] (setting [6]) is given as “further increased; also recorded: increases with exposure time”. The TNF-α secretion entry in the assay with monolayer C3A cells [1] (setting [8]) was “upregulated; also recorded: low, yet elevated”. In the assay on monolayer C3A cells [1] (monolayer C3A cells), the IL-10 secretion result was “increased above the controls; also recorded: upregulated” and the “IL-10 secretion at 48 hr” value is on record as “further increased”. In the assay on monolayer C3A cells [1] (setting [9]), the IL-1Ra secretion result is listed as “did not increase”.
For TNF-α, the “IL-1Ra secretion at the highest dose” value in the assay on monolayer C3A cells [1] (FIG. 18 experiment, TNF-α 100 ng/mL) was “observed decrease”. Also, the IL-1Ra secretion result in the assay with monolayer C3A cells [1] (setting [7]) is reported as “did not increase; also recorded: not TNF-α alone”. Moreover, the APP expression entry with monolayer C3A cells [1] (TNF-α, except when dosed 10,000-fold higher than measured in culture) was “did not significantly impact”.
lipopolysaccharide [LPS]: the IL-1Ra secretion entry with monolayer C3A cells [2] (LPS 0.01, 0.1, 1, 10 EU/mL) is on record as “increased; also recorded: upregulated”. Further, in the assay with monolayer C3A cells [2] (LPS 0.01-10 EU/mL, higher concentrations = 1 and 10 EU/mL), the AAT levels result is “upregulated; also recorded: increased only at higher concentrations”. For the same substance, the IL-1Ra secretion increase result with monolayer C3A cells [2] (LPS at all concentrations evaluated (0.01, 0.1, 1, and 10 EU/mL)) was “approximately 2 fold”.
